{"source": "patent US20220280543A1", "about": "“DDX17 AND NLRC4 TARGETING FOR INFLAMMATORY DISEASES” (University of Virginia Patent Foundation, priority 2019, published 2022)", "key": {"caspase-1": {"tested_on": "caspase-1", "assay": "Alu RNA induced caspase-1 activation in THP1 cells after siRNA knockdown", "format": "cell-based, human", "conditions": "siRNA knockdown (FIGS. 11A, 11B)", "source_text": "FIGS. 11A and 11B. Ddx17 involved in Alu RNA (SEQ ID NO: 86) induced inflammasome independent of its microprocessor function. DDX17 is a component of microprocessor complexes with DDX5 and Drosha. To test whether the microprocessor function of DDX17 is required for Alu RNA (SEQ ID NO: 86) induced inflammasome, we measured caspase-1 activation in THP cells with DDX5 or Drosha knockdown (siRNA for DDX5: GGAAAUUACAGUUAGAGGU; SEQ ID NO: 89); siRNA for Drosha: GACAAGUUGAUAGGAUAUA; SEQ ID NO: 90). FIG. 11A. siRNA mediated Ddx17 knockdown, but not Ddx5 in THP1 cells, blocked Alu RNA (SEQ ID NO: 86) induced caspase-1 activation. […] The caspase-1 (p20) bands were indicated with black arrows.\nWe next examined whether DDX5 or DDX17 was the sensor for Alu RNA (SEQ ID NO: 86) induced NLRC4 inflammasome activation. Due to the high degree of similarity in the sequences of DDX5 and DDX17, we designed 3 siRNAs targeting DDX5 alone, DDX17 alone, or both DDX5 and DDX17, and confirmed their target efficiency in THP1 cells (FIG. 11A). […] Therefore, we tested whether Drosha is also involved in SINE RNA-DDX17-NLRC4 axis. […] These observations implicate that DDX17 mediated SINE RNA induced NLRC4 inflammasome is independent of microprocessor function."}, "ASC oligomerization": {"tested_on": "ASC oligomerization", "assay": "Alu RNA induced ASC oligomerization in THP1 cells after siRNA knockdown", "format": "cell-based, human", "conditions": "siRNA knockdown (FIG. 12A)", "source_text": "(§1) FIGS. 12A and 12B. DDX17 knockdown blocks Alu RNA (SEQ ID NO: 86) induced ASC oligomerization and IL-1β release. FIG. 12A. siRNA mediated DDX17 knockdown (siRNA for DDX17: CCAAUCUGAUGUAUCAGGA; SEQ ID NO: 91), but not Ddx5 (siRNA for DDX5: GGAAAUUACAGUUAGAGGU; SEQ ID NO: 89) in THP1 cells, blocked Alu RNA (SEQ ID NO: 86) induced ASC oligomerization. The band of ASC oligomers were indicated by black arrow. FIG. 12B. siRNA mediated DDX17 knockdown, but not Ddx5 in THP1 cells, blocked Alu RNA (SEQ ID NO: 86) induced IL-1β release.\n(§2) To further confirm that DDX17 is the sensor for NLRC4, we investigated caspase-1 cleavage by immunoblotting and IL-1β secretion by ELISA in Alu RNA (SEQ ID NO: 86) or mock treated THP1 cells and DDX17 KO BMDMs respectively."}, "IL-1β": {"tested_on": "IL-1β", "assay": "Alu RNA induced IL-1β release in THP1 cells after siRNA knockdown, ELISA", "format": "cell-based, human", "conditions": "siRNA knockdown (FIG. 12B)", "source_text": "as §1, §2"}, "[1]": {"tested_on": "CXCL10, IFNB, IL-1β, CASPASE-1 expression", "assay": "Alu RNA induced type I interferon response and inflammatory priming, qPCR, BMDM with DDX17 knockdown", "format": "cell-based, mouse", "conditions": "siRNA 24 hours before Alu RNA 100 pmol, qPCR (FIGS. 14A, 14B)", "protocol": "FIGS. 14A and 14B. […] Wild type BMDM cell were transfected with siRNA target on DDX17 (CCAAUCUGAUGUAUCAGGA; SEQ ID NO: 91), and then 24 hours later, BMDM cells were treated with Alu RNA (SEQ ID NO: 86; 100 pmol). Total RNA extracted for qPCR assay.\nWe previously reported that Alu RNA (SEQ ID NO: 86) induces a type I interferon (IFN) response and inflammatory priming in BMDMs. Since DDX17 is essential for Alu RNA (SEQ ID NO: 86) induced inflammasome activation, we tested whether DDX17 knockdown could affect downstream events of the inflammasome cascade such as the type I IFN response."}, "NLRC4 inflammasome": {"tested_on": "NLRC4 inflammasome", "assay": "Flagellin induced classical NLRC4 inflammasome (caspase-1) after DDX17 knockdown", "format": "cell-based", "conditions": "Flagellin 3 μg/ml, siRNA 24 hours before (FIG. 15)", "protocol": "(§3) FIG. 15. […] THP1 cell were transfected with siRNA target on DDX17 (siRNA sequence: CCAAUCUGAUGUAUCAGGA; SEQ ID NO: 91), and then 24 hours later, Flagellin (3 μg/ml) or LPS (125 ng/ml) plus ATP ([…]/30 minutes), DOTAP plus LPS was added to the THP1 cells. Supernatants were collected for Caspase-1 detection. […] Loading control show by actin. The caspase-1 precursor is referred as p45, and the active form of caspase-1 as p20. The adaptor protein for inflammasome assembly, apoptosis-associated speck-like protein containing a CARD (ASC) is labeled as ASC. The caspase-1p20) bands were indicated with black arrow.\n(§4) We finally examined whether DDX17 has a role in conventional NLRC4 activation by flagellin that requires NAIP and LPS+ATP dependent NLRP3 inflammasome activation. We treated […] with flagellin or LPS+ATP and transfected with siDDX17 and examined NLRC4 or NLRP3 dependent caspase-1 cleavage."}, "NLRP3 inflammasome": {"tested_on": "NLRP3 inflammasome", "assay": "LPS+ATP induced NLRP3 inflammasome (caspase-1) after DDX17 knockdown", "format": "cell-based", "conditions": "LPS 125 ng/ml plus ATP, siRNA 24 hours before (FIG. 15)", "protocol": "as §3, §4"}, "RPE degeneration": {"tested_on": "RPE degeneration", "assay": "Alu RNA induced RPE degeneration in mice, fundus images and ZO-1 staining", "format": "in vivo", "conditions": "mice, subretinal Alu RNA; fundus and ZO-1 (FIGS. 25B, 26)", "protocol": "FIGS. 25A and 25B. NLRC4 knockdown blocks Alu RNA (SEQ ID NO: 86) induced ASC oligomerization and RPE degeneration. Human RPE cell treated with siRNA target on NLRC4 (SMARTPOOL siRNA for NLRC4: CAACUGGGCUCCUCUGUAA; SEQ ID NO: 93) and NAIP (SMARTPOOL siRNA for NAIP: GUAAAGAGCUAUAUGGAUA; SEQ ID NO: 94), 24 hours later, treated with Alu RNA (SEQ ID NO: 86 at 100 pmol) FIG. 25A. […] The band of ASC oligomers was indicated by black arrow. […] The hyperdense areas due to the RPE degeneration in fundus images and ZO-1 disorganizations in RPE sheet are indicated by white arrows.\nFIG. 26. […] Wilde type of C57/B6 mice were intravitreally injected with siRNA target on Ddx17 (siRNA for Ddx17: GGCUAGAUGUGGAAGAUGU; SEQ ID NO: 95), and two days later, Nlrc4^−/−, Naip1-6^−/−, mice and Ddx17 knockdown mice were subretinally injected with Alu RNA (SEQ ID NO: 86). […] The hyperdense areas due to the RPE degeneration in fundus images and ZO-1 disorganizations in RPE sheet are indicated by white arrows.\nNext, we asked whether Alu RNA (SEQ ID NO: 86) also triggered NLRC4 inflammasome activation in human RPE cells. We performed immunofluorescence staining experiments to examine whether Alu RNA (SEQ ID NO: 86) can induce NLRC4 speck formation in human RPE cells. We noticed punctate structures resembling specks of NLRC4 in human RPE cells in response to Alu RNA (SEQ ID NO: 86) treatment (FIG. 24A). […] We further investigated downstream events of NLRC4 inflammasome activation by studying NLRC4-induced ASC oligomerization, a critical step involved in caspase-1 cleavage. NLRC4 siRNA, when co-administered with Alu RNA (SEQ ID NO: 86), blocked ASC oligomerization in vitro (FIG. 25A) and RPE degeneration in vivo (FIG. 25B).\nWe delivered Alu RNA (SEQ ID NO: 86) or Alu RNA (SEQ ID NO: 86)+siDDX17 subretinally in WT or NLRC4 KO or NAIP1-6 KO mice and examined for RPE degeneration using fundus photos and ZO-1 staining as described previously."}}, "data": [{"substance": "siDDX17: siRNA for DDX17: CCAAUCUGAUGUAUCAGGA; SEQ ID NO: 91 (chemistry not fully specified)", "values": [{"measurement": "caspase-1 cleavage in Alu RNA treated THP1 cells", "setting": "caspase-1", "value": "inhibited"}, {"measurement": "caspase-1 cleavage in Alu RNA treated THP1 cells", "setting": "caspase-1; listed as DDX17 siRNA", "value": "reduce"}, {"measurement": "Alu RNA induced ASC oligomerization, THP1 cells", "setting": "ASC oligomerization", "value": "prevented"}, {"measurement": "Alu RNA induced IL-1β release, THP1 cells, ELISA", "setting": "IL-1β", "value": "significantly reduced"}, {"measurement": "expression of caspase-1, CXCL10, IFNβ, IL-18 and IL-1β genes after Alu RNA", "setting": "[1]", "value": "did not affect"}, {"measurement": "flagellin induced NLRC4 inflammasome, caspase-1 levels", "setting": "NLRC4 inflammasome", "value": "does not affect"}, {"measurement": "LPS+ATP induced NLRP3 inflammasome, caspase-1 levels", "setting": "NLRP3 inflammasome", "value": "does not affect"}, {"measurement": "Alu RNA induced RPE degeneration in vivo, effect of siRNA", "setting": "RPE degeneration", "value": "rescued from this phenotype"}]}]}
